The subject of assay [1] is superoxide anions generated in rat aorta. The assay can be described thus: Superoxide anion production in rat isolated aortic segments (lucigenin chemiluminescence, NADPH). Type of assay: cell-based. The following applies: disodium salt. As for the experimental part:
Superoxide anion production in rat isolated aortic segments was determined using lucigenin chemiluminescence. Aortic rings were prepared as described above and then placed in ice-cold Krebs-(N-[2-Hydroxyethyl]piperazine-N′-[2-ethanesulfonic acid] (HEPES buffer) (composition (mM); NaCl 99.0, KCl 4.7, KH2PO4 1.0, MgSO4·7H2O 1.2, D-glucose 11.0, NaHCO3 25.0, CaCl2·2H2O 2.5, Na-HEPES 20.0). Aortic rings were pre-incubated for 45 minutes at 37° C. with a pH 7.4, in Krebs-HEPES buffer containing diethylthiocarbamic acid (DETCA, 10^−3 M) to inactivate superoxide dismutase and β-nicotinamide adenine dinucleotide phosphate (NADPH, 10^−4 M) as a substrate for NADPH oxidase and either 3′,4′-dihydroxyflavonol (10^−4 M) as a positive control, vehicle, 3-hydroxyflavone-3-hemiadipate, 3′,4′-dihydroxy-3-hemiadipate, 3-hydroxyflavone-3-phosphate (10^−8-10^−4 M). Background photon emission was measured for 12 cycles in a 96-well Optiplate containing 0.3 ml per well of Krebs-HEPES buffer together with lucigenin (5×10^−5 M) and vehicle or flavonoid (10^−8-10^−4 M). Each cycle was counted every one minute. After background reading was completed the incubated aortic rings were transferred to the appropriate wells and photon emission was recounted as described above. The tissue was then placed in a 65° C. oven for 48 hours to allow superoxide production to be normalised to dry tissue weight.
The effects of vehicle, 3′,4′-dihydroxyflavone-3-hemiadipate (21) (DiOHF3HA, 10^−8 M-10^−4 M) and DiOHF (10^−4 M) in the presence and absence of Butyryl cholinesterase (BuCHE), 100, 300 and 1000 U/L) on the level of superoxide anions generated in rat isolated aortic segments in the presence of NADPH was expressed as a percentage of control. The method used was as described above except for the addition of the butyryl cholinesterase.
The effect of vehicle, 3-hydroxyflavone-3-phosphate (10^−8 to 10^−4 M) in the presence or absence of phosphatase (1000 U/L) on the level of superoxide anions generated in rat aorta in the presence of NADPH expressed as a percentage of control was determined as described above for the 3′,4′-dihydroxyflavone-3-hemiadipate.

The test system of assay [2] is endothelium intact aortic rings. The assay can be described thus: Ca2+-induced contraction of rat aortic rings in Ca2+-free high-K+ solution. Type of assay: cell-based. On the procedure:
To determine the effect of flavonoids on responses to the influx of extracellular Ca^2+, contractile responses to exogenous application of Ca^2+ were examined in the presence of flavonoids in Ca^2+-free high-K^+ solution (60 mM, KPSS). Aortic rings were initially equilibrated at a resting tension of 1 g in normal Ca^2+-free PSS for 45 minutes. The bath medium was then replaced with Ca^2+-free KPSS for 45 minutes to determine a reference contraction to Ca^2+ (3×10^−3 M). Following a 30 minute re-equilibration period with Ca^2+-free PSS, the cumulative contractile responses to Ca^2+ (10^−5−3×10^−3 M) were determined in KPSS in the presence of a range of concentrations (10^−8-10^−4 M) of vehicle, 3′,4′-dihydroxyflavonol, 3-hydroxyflavone-3-hemiadipate, 3′,4′-dihydroxy-3-hemiadipate, 3-hydroxyflavone-3-phosphate. A 20 minute incubation period was allowed for the flavonoids before examining the responses to Ca^2+.
To determine the effect of flavonoids on responses to the influx of extracellular Ca^2+, contractile responses to exogenous application of Ca^2+ were examined in the presence of flavonoids in Ca^2+-free high-K^+ solution (60 mM, K+-PSS). Aortic rings were initially equilibrated at a resting tension of 1 g in Ca^2+-free PSS for 45 minutes. The bath medium was then replaced with Ca^2+-free K+-PSS for 45 minutes to determine a reference contraction to added Ca^2+ (3 mM). Following a 30 minute re-equilibration period with Ca^2+-free PSS, the cumulative contractile responses to Ca^2+ (10^−5−3×10^−3 M) were determined in K^+ PSS in the presence of vehicle (0.1% DMSO), or a range of concentrations (10^−7-10^−4 M) of 3′-hydroxyflavonol, F3HA, DiOHF3HA or F3P. A 20 minute incubation period was allowed for the flavonoids before examining the responses to Ca^2+. Experiments were conducted in the presence and absence of BuCHE (1000 U/L) to cleave the adipate in F3HA and DiOHF3HA. In experiments using F3P, phosphatase (1000 U/L) was used in some experiments to cleave the phosphate.

Assay [3] shares this test system. The assay can be described thus: Effect on ACh relaxation of precontracted rat aortic rings. Type of assay: cell-based. The following applies: for Rmax of ACh relaxation: n=5. On the procedure: (§1) After wash out and re-equilibration for 30 min, the aortic rings were then submaximally precontracted with PE and U46619, which were used to produce an active tension of 45-60% of the KPSS-induced maximum contraction. When investigating the effects of the flavonoids, flavonol, flavone-3-hemiadipate (F3HA), 3′, 4′-dihydroxyflavone, 3′,4′-dihydroxyflavonol, 3′,4′-dihydroxyflavone-3-hemiadipate (DiOHF3HA), and flavone-3-phosphate (F3P) on vasorelaxant responses, rings were incubated with one of the compounds for 20 mins before they were precontracted submaximally, followed by a cumulative-concentration response curve to ACh (100 nM-10 μM) or SNP ([…]). In experiments using F3P 1000U/L phosphatase was used in some experiments to cleave the phosphate. Some experiments were conducted in the presence and absence of butyryl cholinesterase (BuCHE, 1000 U/L) to cleave the adipate in DiOHF3HA and F3HA.

A further assay relates to aortic rings. The experiment in a line: Effect on SNP relaxation of precontracted rat aortic rings. In kind it is cell-based. The conditions noted are these: in the presence of BuCHE or phosphatase. As for the experimental part:
as §1

For assay [4], the system named is endothelium-intact aortic rings treated with pyrogallol. The assay can be described thus: Vasorelaxation to ACh in the presence of oxidative stress (pyrogallol). Type of assay: cell-based, rat. The conditions noted are these: pyrogallol 2×10^−5 M, F3P plus phosphatase; disodium salt. As for the experimental part:
Control cumulative relaxation responses to ACh were compared with those obtained from endothelium-intact aortic rings treated with pyrogallol (2×10^−5 M). The effects of vehicle (0.1% DMSO), phosphatase (1000 U/L) or F3P (10^−6-10^−4 M) on responses to ACh in the rat isolated aortic rings exposed to pyrogallol (2×10^−5 M) were also determined. Pyrogallol was added when the aortic rings had reached a stable level of contraction with PE and U44619 at a level between 50 and 70% of KPSS-induced tension and 10 minutes was allowed before determining the cumulative concentration-response curves to ACh. In some experiments using F3P 1000 U/L phosphatase was used to cleave the phosphate.

The subject of a further assay is anaesthetised rats. The experiment in a line: Arterial pressure and heart rate in anaesthetised rats after intravenous injection. The conditions noted are these: intravenous, anaesthetised rats; disodium salt. In kind it is in vivo, rat. As for the experimental part: A unit dosage of an aqueous solution of 3-hydroxyflavone-3-hemiadipate (15) was administered to a group of male anesthetized Sprague Dawley rats intravenously and the blood pressure monitored over a period of time.
Male Sprague-Dawley rats (250-350 g) were anaesthetised with pentobarbitone sodium (60 mg kg^−1, ip). The trachea was isolated and cannulated with polyethylene tracheal tube (I.D. 2.0 mm), and the rat was allowed to breathe spontaneously.
The right carotid artery was cannulated and connected with a heparinised saline filled cannula (O.D. 0.75, I.D, 0.58 mm) and connected to a pressure transducer. Mean and phasic arterial pressure were continuously measured and recorded on a polygraph. The heart rate, was derived from the phasic arterial pressure using a tachometer.
DiOHF3HA ([…]) was injected intravenously, allowing at least 30 min between injections, and the peak changes in mean arterial pressure and heart rate measured. […] In a separate group of experiments ACh (0.3 mg/kg iv) and phenylephrine (PE, […]) were injected before and 30 minutes after DiOHF3HA (3 mg/kg iv), a time when arterial pressure and heart rate had returned to control levels. […]

Entries after “also recorded” stand apart in the source; their conditions may differ.

Turning to `O=c1c(OP(=O)([O-])[O-])c(-c2ccccc2)oc2ccccc12.[Na+].[Na+]` [F3P, 3-Hydroxyflavone-3-phosphate disodium salt], the “effect on superoxide generation” value in assay [1] (in the presence of cleaving enzyme (BuCHE for hemiadipates, phosphatase for phosphate, 1000 U/L)) was “concentration-dependent inhibition of superoxide levels; also recorded: inhibit superoxide levels produced by rat aorta”; in assay [1] (in the presence of cleaving enzyme (BuCHE for hemiadipates, phosphatase for phosphate, 1000 U/L), listed as flavone-3-phosphate), “concentration dependent decrease in the levels of superoxide”; in assay [1] (substance alone, no added esterase/phosphatase, up to 10^−4 M, NADPH), “no effect on superoxide generation; also recorded: no antioxidant or vascular activity”; in assay [1] (substance alone, no added esterase/phosphatase, up to 10^−4 M, NADPH, listed as 3-hydroxyflavone-3-phosphate), “measurable effect on the superoxide anion generation”. Further, the “effect on Ca^2+-induced contraction” value was “partial inhibition of the calcium-induced contraction” in assay [2] (alone, highest concentration 10^−4 M); “small inhibition of calcium-induced contraction” in assay [2] (alone, over the concentration range tested); “markedly enhanced the inhibitory effects” in assay [2] (in the presence of BuCHE or phosphatase (1000 U/L), listed as flavone-3-phosphate, disodium salt). Further, the “Rmax of ACh relaxation” value in assay [3] (F3P 10^−4 M + phosphatase) and in assay [3] (F3P 10^−5 M + phosphatase) was 100 ± 1 in each case. The “effect on relaxant response to ACh” value in assay [3] (in the presence of phosphatase, disodium salt) is “enhanced; also recorded: increased the sensitivity of rat aortic rings to relaxation by ACh”. Also, the “effect on relaxant response to SNP” value in the assay with aortic rings is listed as “not SNP”. Moreover, the “maximum response to ACh under oxidant stress” value in assay [4] is “the response was restored; also recorded: enhance endothelium-dependent relaxation in the presence of oxidant stress”. Also, the “change in heart rate (HR)” value in the assay on anaesthetised rats is on record as “dose-dependent decrease in HR; also recorded: only small concentration dependent decreases”. Further, in the assay with anaesthetised rats, the “change in mean arterial pressure (MAP)” value is “dose-dependent decreases in MAP; also recorded: only small concentration dependent decreases”.

The values above are taken from patent US8017649B2, “Flavonoid compounds and uses thereof” (Howard Florey Institute of Experimental Physiology and …, priority 2005, dated 2011).
